The source of these data is patent EP0230052B1, “Immunoamplifiers and related Compositions” (Gottlieb, Arthur A., priority 1985, dated 1987).

Assay [1] has as its system DH skin reaction to tetanus toxoid. Set-up: species or system human. The settings on record: in vivo.
Assay [2] concerns IL-2 production in response to mitogen PHA. In words: IL-2 in vitro test (PHA-stimulated IL-2 production). The assay is classed as cell-based, human. The following applies: optimal concentration of TGG. An excerpt:
The production of IL-2 in response to mitogen was characterized by the existence of the same optimal concentration phenomenon (paradoxical effect) described above.

The next assay deals with DH response. In words: Modulator assay methods of the '379 patent (amplifier activity, DH test). The assay is classed as in vivo, human. The following applies: other moieties in effluents of Example 6B process.

As for Tyrosylglycylglycine [TGG], the “optimum concentration for maximum immune effect” value in assay [1] is reported as around 3 fM. The “ratio of PHA-stimulated IL-2 production with TGG added to without TGG” value in assay [2] (subject #1) is reported as 1.45; in assay [2] (subject #2), 2.55.

Turning to Ser-Phe, in the assay on DH response, the “immunological activity as assayed by DH test” value is listed as “None of these other moieties appeared to possess immunological activity”.

Consider Gly-Gly, for which, in the assay with DH response, the “immunological activity as assayed by DH test” value is on record as “None of these other moieties appeared to possess immunological activity”.
